# Data reported in PMC7217877, “N-AS-triggered SPMs are direct regulators of microglia in a model of Alzheimer’s disease” (Nature Communications, 2020).
# “And” between values parts separate entries of the source, which are not always exact repeats. Equal entries are not always repeated.
# Experiments:
# microglia = test: immunofluorescence of ac-S565 and COX2 in primary cells; format: cell-based, C57BL/6 mice; details: Ab 10mM, replicates
# Protocol: (§1) To confirm the generation and roles of N-AS in neurons, cells from E18 C57BL/6 mice were prepared as previously described. Cortices were dissected and then dissociated followed by incubation in papain (Worthington) at 37 °C for 15 min. Neurons were plated on poly-L-lysine-coated coverslips with neuronal culture medium, serum-free Neurobasal medium (Gibco) containing 2% B27 supplements (Gibco), 1 mM Glutamax supplement (Gibco), and 100 U ml^−1 streptomycin/ 100 U ml^−1 penicillin (Gibco) at 37 °C in a humidified atmosphere of 5% CO2. Aβ 1–42 (10 μM, 24 h, Invitrogen, 03112) was exposed to neurons and the cells were analyzed for the generation and roles of N-AS. Primary astrocyte cultures were prepared from C57BL/6 mice as described previously. […] The human microglia treated with Aβ 1–42 and/or zileuton was incubated with N-AS (2.5 μM, 2 h, Sigma-Aldrich, 01912), and were analyzed for the generation and roles of N-AS.
# (§2) Thioflavin S (Sigma-Aldrich) staining was carried out according to previously described procedures. […] The sections were analyzed with a laser-scanning confocal microscope (FV3000; Olympus) or with a BX51 microscope (Olympus). MetaMorph software (Molecular Devices) was used to quantification. Three-dimensional reconstruction of microglia was recorded and analyzed using IMARIS software (Bitplane)[11]. […]
# astrocyte = test: as above; format: cell-based, C57BL/6 mice; details: Ab 10mM, replicates
# Protocol: as §1, §2
substance,measurement,setting,value
"Ab: Aβ 1–42 (Invitrogen, 03112) used to induce an AD environment in cells","ac-S565 with COX2, immunofluorescence quantification (Fig 3c)",microglia,0.1091 and 0.1473 and 0.02354 and 0.07315 and 0.06621 and 0.05168
same,"ac-S565 with COX2, immunofluorescence quantification (Fig 3c)",astrocyte,0.03307 and 0.0783 and 0.03875 and 0.05053 and 0.0718 and 0.07636
